Laboratory results reported in patent US4430342A, “N-Acyl-3-[4-(benzoylalkyl)piperazin-1-yl]-sydnonimine compound, process for prodction thereof, and use thereof” (Hidaka; Hiroyoshi, priority 1981, dated 1984).
≈ marks a conversion by molar mass, not a printed value. Structures can show the parent of a compound that is named as a salt. Where two headings read alike, the source gives them in different places.

Columns and labels:
[1] = solubility in water, dilute hydrochloric acid and Carmody's buffer by absorbance at 317 nm; assay type: physicochemical; conditions: 25° C.
Procedure: The solubility of the N-ethoxycarbonyl-3-[4-(4-benzoylbutyl)piperazin-1-yl]sydnonimine obtained in Example 1 in water dilute hydrochloric acid and the Carmody's buffer was measured by the absorbance of the solution at 317 nm.

[2] = acute toxicity in male dd-strain mice; conditions: mouse, in vivo
Procedure: The acute toxicity of the in vivo active type of this typical compound as a prodrug was tested by using male dd-strain mice (body weight 16 to 20 g).

[3] = tested on: extracted heart of a guinea pig; assay: coronary blood flow, Langendorf's method, extracted heart; conditions: 0.1 ml of 10^-4 g/ml solution injected
Procedure: The increase or decrease of the coronary blood flow was examined by the Langendorf's method using the extracted heart of a guinea pig. […] On the other hand, when 0.1 ml of morsydmine (10^-4 g/ml solution) was injected, no increase in the coronary blood flow was observed.

[4] = water solubility of the salts; assay type: physicochemical
[5] = tested on: extracted mesenteric artery of a rabbit; assay: mesenteric artery relaxing activity, in vitro (extracted artery); conditions: Oryctolagus cuniculus, read-out: Mesenteric artery relaxing activity (50% of the maximum relaxation)
Description: (§1) Table 1 summarizes the results of in vitro tests in which the human platelet aggregation inyibitory activity of the 3-[4-(benzoylalkyl)piperazin-1-yl]sydnonimines of formula (2) and their relaxing activity on the extracted mesenteric artery of a rabbit were examined.
(§2) The mesenteric artery relaxing activity is shown by the […] (μM) of a drug required to induce 50% of the maximum relaxation, and the platelet aggregation inhibiting activity, by the concentration (μM) of a drug required to inhibit collagen-induced platelet aggregation to an extent of 50%.

[6] = tested on: human platelet aggregation; assay: collagen-induced human platelet aggregation inhibiting activity, in vitro; assay type: cell-based; conditions: human platelets, read-out: Platelet aggregation inhibiting activity (50% inhibition)
Description: as §1, §2

amygdaloid nucleus = assay: local cerebral blood flow, amygdaloid nucleus (hydrogen gas clearance method); assay type: in vivo, rabbit; conditions: 0.5 mg/kg i.v.; until 1 hour after administration; based on blood flow before administration
Procedure: (a) Activity on the hippocampus and amygdaloid nucleus (by the hydrogen gas clearance method) Rabbits having a body weight of about 3 kg, five per group, were used. A tracheal cannula was inserted into each rabbit under sodium pentobarbital anesthesia, and under artificial respiration, gallamine triethiodide was intravenously administered in a dose of 2 mg/kg to immobilize it. The animal was then fixed to a brain stereotaxic apparatus (Todai Noken type). Gallamine triethiodide was also intramuscularly administered in a dose of 3 mg/kg every one hour.
The local cerebral blood flow was measured by the hydrogen gas clearance method (UH meter, PHG-201, manufactured by Unique Medical Co., Ltd.). Platinum electrodes having a diameter of 300 μm and coated with an epoxy resin were inserted in the hippocampus (P:4, L:5, H:+5) and the amygdaloid nucleus (A:2, L:6, H:-6) in accordance with the brain atlas of Sawyer et al. An indifferent electrode was placed under the skin of the head and fixed there. […] The resulting curve was plotted semilogarithmically, and the half-time period (T 1/2) was determined by the initial slope method. The blood flow was calculated from the following equation.
The blood flow was measured every thirty minutes. […]

cerebral cortex = assay: blood flow in the cerebral cortex (cross thermocouple method); assay type: in vivo, rabbit; conditions: 0.5 mg/kg via retroauricular vein
Procedure: Male rabbits having a body weight of about 3 kg, five per group, were used. Under sodium pentobarbital anesthesia, a tracheal cannula was inserted into each rabbits, and under artificial respiration, 2 mg of gallamine triethiodide was intravenously injected to immobilize the animals. The animals were each fixed to a brain stereotaxic apparatus (Todai Noken type). An element of the double needle type (WN-301, manufactured by Unique Medical Co.) was inserted into the frontal contex through a hole provided by a dental drill, and variations in potential were recorded. After the blood flow was stabilized, the test drug and a control drug were each administered through a cannula inserted into the retroauricular vein of the right ear. The percent increase in the blood flow was calculated by taking the blood flow at death as 0 and the blood flow before drug administration as 100%. When the compound A (0.5 mg/kg) was administered as the test drug, the blood flow increased by 10 to 20%. But when the control drug, morsydmine, (0.5 mg/kg) was administered, no increase in the blood flow was noted.

`CCOC(=O)[N-]c1c[n+](N2CCN(CCCCC(=O)c3ccccc3)CC2)no1` [Compound A, N-carboethoxy-3-[4-(4-benzoylbutyl)piperazin-1-yl]sydnonimine] gave a solubility ([1]; 0.001 n hydrochloric acid, 0.001 N (pH 3), read-out: Solubility in dilute hydrochloric acid) of 2300 µg/mL (≈ 5.73 mM), a solubility ([1]; 0.01 n hydrochloric acid, 0.01 N (pH 2), read-out: Solubility in dilute hydrochloric acid) of 6300 µg/mL (≈ 15.7 mM) and a solubility ([1]; 0.1 n hydrochloric acid, 0.1 N (pH 1), read-out: Solubility in dilute hydrochloric acid) of 10400 µg/mL (≈ 25.9 mM). The solubility ([1]; carmody's buffer, pH 2, read-out: Solubility in Carmody's buffer) was 15600 µg/mL (≈ 38.9 mM), the solubility ([1]; carmody's buffer, pH 3, read-out: Solubility in Carmody's buffer) was 9300 µg/mL (≈ 23.2 mM) and the solubility ([1]; carmody's buffer, pH 4, read-out: Solubility in Carmody's buffer) was 4400 µg/mL (≈ 11 mM). The solubility ([1]; carmody's buffer, pH 5, read-out: Solubility in Carmody's buffer) was 1000 µg/mL (≈ 2.49 mM), the solubility ([1]; carmody's buffer, pH 6, read-out: Solubility in Carmody's buffer) was 400 µg/mL (≈ 0.996 mM) and the solubility ([1]; carmody's buffer, pH 7, read-out: Solubility in Carmody's buffer) was 100 µg/mL (≈ 0.249 mM). It also gave a solubility ([1]; water, read-out: Solubility in water) of 10 µg/mL (≈ 0.0249 mM).
In the case of `CCOC(=O)[N-]c1c[n+](N2CCN(CCCCC(=O)c3ccccc3)CC2)no1` [Compound A], the LD50 ([2]; intravenous administration) is reported as 91 mg/kg, the LD50 ([2]; oral administration) is reported as 750 mg/kg and the LD50 ([2]; sc, subcutaneous administration) is reported as 350 mg/kg. The activation at 100 µg/mL ([3]; Cavia porcellus, read-out: increase in the coronary blood flow) was 14%.
For `CCOC(=O)[N-]c1c[n+](N2CCN(CCCCC(=O)c3ccccc3)CC2)no1` [Hydrochloride, N-ethoxycarbonyl-3-[4-(4-benzoylbutyl)-piperazin-1-yl]sydnonimine], the Solubility in water [4] was 0.89%.
Work on `CCOC(=O)[N-]c1c[n+](N2CCN(CCCCC(=O)c3ccccc3)CC2)no1` [Maleate, N-ethoxycarbonyl-3-[4-(4-benzoylbutyl)-piperazin-1-yl]sydnonimine] yielded a Solubility in water [4] of 0.94%.
For `CCOC(=O)[N-]c1c[n+](N2CCN(CCCCC(=O)c3ccccc3)CC2)no1` [Nitrate, N-ethoxycarbonyl-3-[4-(4-benzoylbutyl)-piperazin-1-yl]sydnonimine], the Solubility in water [4] was 0.43%.
`CCOC(=O)[N-]c1c[n+](N2CCN(CCCCC(=O)c3ccccc3)CC2)no1` [Oxalate, N-ethoxycarbonyl-3-[4-(4-benzoylbutyl)-piperazin-1-yl]sydnonimine] gave a Solubility in water [4] of 0.46%.
With `[NH-]c1c[n+](N2CCN(CC(=O)c3ccccc3)CC2)no1` [R = H, n = 0, 3-[4-(benzoylmethyl)piperazin-1-yl]sydnonimine dihydrochloride] the EC50 [5] was 160 nM and the IC50 [6] was 140 nM.
`[NH-]c1c[n+](N2CCN(CCCC(=O)c3ccccc3)CC2)no1` [R = H, n = 2] gave an EC50 [5] of 2300 nM and an IC50 [6] of 5400 nM.
For `[NH-]c1c[n+](N2CCN(CCCCC(=O)c3ccccc3)CC2)no1` [R = H, n = 3, 3-[4-(4-benzoylbutyl)piperazin-1-yl]sydnonimine dihydrochloride], the EC50 [5] was 200 nM and the IC50 [6] was 3400 nM.
`[NH-]c1c[n+](N2CCN(CCCCCC(=O)c3ccccc3)CC2)no1` [R = H, n = 4] gave an EC50 [5] of 3000 nM and an IC50 [6] of 6300 nM.
`[NH-]c1c[n+](N2CCN(CCCCCCC(=O)c3ccccc3)CC2)no1` [R = H, n = 5] showed an EC50 [5] of 120 nM and an IC50 [6] of 940 nM.
`[NH-]c1c[n+](N2CCN(CCCCCCCCC(=O)c3ccccc3)CC2)no1` [R = H, n = 7, 3-[4-(8-benzoyloctyl)piperazin-1-yl]sydnonimine dihydrochloride] showed an EC50 [5] of 58 nM and an IC50 [6] of 28 nM.
`CC(C)CC(CCCN1CCN([n+]2cc([NH-])on2)CC1)C(=O)c1ccccc1` (stereo not shown) [R = iso-C4 H9, n = 3, 3-[4-(benzoyl-6-methylheptyl)piperazin-1-yl]sydnonimine dihydrochloride] gave an IC50 [6] of 11000 nM.
With `CCOC(=O)[N-]c1c[n+](N2CCOCC2)no1` [morsydmine] the “increase of local cerebral blood flow at the amygdaloid nucleus” value (amygdaloid nucleus) was “about 15%”, the “coronary blood flow, result in words” value [3] was “no increase” and the “blood flow in the cerebral cortex, result in words” value (cerebral cortex) was “no increase”.
